Data from the supplement of paper PMC10307832.

Experiments:
Experiment in all cases: relative viability (nuclei count vs DMSO), 5 days (fraction); higher = more cells survive
Linsitinib + Vorinostat = compound: C[C@]1(O)C[C@@H](c2nc(-c3ccc4ccc(-c5ccccc5)nc4c3)c3c(N)nccn32)C1 [Linsitinib] + O=C(CCCCCCC(=O)Nc1ccccc1)NO [Vorinostat] (partner 1 µM)
Outline: (§1)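 After 5 days of treatment, lung cancer cells in 1536-well plates were fixed and stained in a single step (final 0.05% Triton X-100, 1% formaldehyde, 1 ug/ml Hoechst) and their nuclei counted on 4× images. Treatment had been applied by pin tool the day after seeding as one drug alone or as a fixed anchor-drug dose with five library-drug doses (not always all listed) in √10 steps. Relative viability is the nuclei count of treated wells divided by that of vehicle wells, and values are medians of duplicate plates.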

Linsitinib + Pemetrexed = compound: C[C@]1(O)C[C@@H](c2nc(-c3ccc4ccc(-c5ccccc5)nc4c3)c3c(N)nccn32)C1 [Linsitinib] + Nc1nc2[nH]cc(CCc3ccc(C(=O)N[C@@H](CCC(=O)O)C(=O)O)cc3)c2c(=O)[nH]1 [Pemetrexed] (partner 0.2 µM)
Outline: as §1

Linsitinib + Lapatinib = compound: C[C@]1(O)C[C@@H](c2nc(-c3ccc4ccc(-c5ccccc5)nc4c3)c3c(N)nccn32)C1 [Linsitinib] + CS(=O)(=O)CCNCc1ccc(-c2ccc3ncnc(Nc4ccc(OCc5cccc(F)c5)c(Cl)c4)c3c2)o1 [Lapatinib] (partner 2 µM)
Outline: as §1

Ispinesib + Luminespib = compound: Cc1ccc(C(=O)N(CCCN)[C@@H](c2nc3cc(Cl)ccc3c(=O)n2Cc2ccccc2)C(C)C)cc1 [Ispinesib] + CCNC(=O)c1noc(-c2cc(C(C)C)c(O)cc2O)c1-c1ccc(CN2CCOCC2)cc1 [Luminespib] (partner 0.01 µM)
Outline: as §1

Cell Line	relative viability (Linsitinib + Vorinostat; first compound 0.01 µM)	relative viability (Linsitinib + Vorinostat; first compound 0.03162 µM)	relative viability (Linsitinib + Vorinostat; first compound 0.1 µM)	relative viability (Linsitinib + Vorinostat; first compound 0.3162 µM)	relative viability (Linsitinib + Vorinostat; first compound 1 µM)	relative viability (Linsitinib + Pemetrexed; first compound 0.01 µM)	relative viability (Linsitinib + Pemetrexed; first compound 0.03162 µM)	relative viability (Linsitinib + Pemetrexed; first compound 0.1 µM)	relative viability (Linsitinib + Pemetrexed; first compound 0.3162 µM)	relative viability (Linsitinib + Pemetrexed; first compound 1 µM)	relative viability (Linsitinib + Lapatinib; first compound 0.01 µM)	relative viability (Linsitinib + Lapatinib; first compound 0.03162 µM)	relative viability (Linsitinib + Lapatinib; first compound 0.1 µM)	relative viability (Linsitinib + Lapatinib; first compound 0.3162 µM)	relative viability (Linsitinib + Lapatinib; first compound 1 µM)	relative viability (Ispinesib + Luminespib; first compound 0.001 µM)	relative viability (Ispinesib + Luminespib; first compound 0.003162 µM)	relative viability (Ispinesib + Luminespib; first compound 0.01 µM)	relative viability (Ispinesib + Luminespib; first compound 0.03162 µM)	relative viability (Ispinesib + Luminespib; first compound 0.1 µM)
LXF-289	0.735	0.69	0.755	0.473	0.729	0.879	0.88	0.927	0.777	0.861	0.924	0.911	0.901	0.643	0.886	0.622	0.794	0.743	0.556	0.617
NCI-H2087	0.68	0.74	0.702	0.693	0.795	0.559	0.591	0.571	0.555	0.646	0.886	1.26	1.13	0.349	0.626	0.168	0.159	0.189	0.14	0.151
CAL-12T	0.69	0.744	0.727	0.524	0.569	1.25	0.946	1.23	1.14	1.13	0.705	0.613	0.655	0.576	0.518	0.318	0.394	0.688	0.379	0.236
NCI-H596	0.583	0.584	0.597	0.49	0.593	0.552	0.428	0.497	0.447	0.46	1.05	1.07	1.05	0.965	0.991	1.01	0.954	1.07	1.06	0.609
